In patent US11479536B1 (King Abdulaziz University, priority 2022, dated 2022):

Test system: T47D cell line
Assay: Cytotoxic assay (MTT) in monolayer model, T47D
Type: cell-based
Conditions: Homo sapiens, 48 h, read-out: IC50 cytotoxic assay against T47D, monolayer
Procedure: 1×10^6 cells of the human breast cancer cell lines MCF7 and T47D were seeded and grown at 37° C. with 5% CO2, in a Dulbecco's Modified Eagle Medium (DMEM) with 10% fetal bovine serum (Sigma). The cells were maintained until they reached the confluence over 90%. Then, the cells were subjected to the different treatment conditions before performing the assays.
The cytotoxic effects of MAK compounds were assessed against MCF7 and T47D cell lines using MTT cell viability assay. The cells were treated for 48 hours with different concentrations of each MAK compound and the control cells were subjected to the vehicle (0.1% DMSO). Then, 10% of 5 mg/mL MTT was added to each well containing treated or control cells, and mixture was incubated at 37° C. for 3 hours. After that, the MTT-containing media was replaced with 100 μL DMSO and incubated for 10 minutes at room temperature before measuring the absorbance for each well at 570 nm. According to the measured absorbance, the IC50 was calculated for each compound. All the experiments were performed in biological and experimental replicates.

O=C(Cc1ccc(NC(=O)c2cccc(Cl)c2)cn1)NCc1ccccc1 [MAK-6, N-(6-(2-(benzylamino)-2-oxoethyl)pyridin-3-yl)-3-chlorobenzamide]
IC50: 1.2 nM
